Experimental data as given in paper PMC9260667, “Thioredoxin Reductase Inhibitors as Potential Antitumors: Mercury Compounds Efficacy in Glioma Cells” (Frontiers in Molecular Biosciences, 2022).
Like-named read-outs stand apart in the source and are kept apart here.

Legend:
Type in all cases: cell-based, mouse
[1] = test system: Prx2; assay: Prx2 redox state (dimer/monomer, non-reducing Western blot); settings: GL261, 1 and 2 μM, 24 h
Description: To evaluate the Prx2 redox state, cells were lysed in lysis buffer containing NEM (N-ethylmaleimide; Sigma) and, subsequently, the soluble protein fraction was separated by non-reducing SDS-PAGE electrophoresis, followed by transfer to a nitrocellulose membrane, after blockage with milk and incubation with the respective antibodies–Prx2 mouse monoclonal IgG (sc-515428, Sta. Cruz) and goat anti-mouse IgG-HRP (sc-2005, Sta. Cruz)—as previously described ([Brown et al., 2008]). The ratio between the bands of the Prx2 dimer and monomer was quantified for each sample using the Bio-Rad Quantity One software.

[2] = test system: Caspase-3; assay: Caspase-3 activity (DEVD-pNA assay) in lysates of exposed GL261 cells; settings: GL261, 5 µM, 24 h
Description: Caspase-3 activity was determined by measuring the enzymatic cleavage of chromophore p-nitroanilide (pNA) from the substrate N-acetyl-Asp-Glu-Val-Asp-pNA (DEVD-pNA) ([Borralho et al., 2007]).
This activity was determined based on a proteolytic reaction previously described ([Borralho et al., 2007]) with some modifications. In this assay total cell lysates were used, where cells were exposed to the TmHg and EtHg (1; 2 and 5 µM) for 24 h. This reaction was performed in an isolation buffer, containing 100 μg of cytosolic protein of cellular lysates, 50 μM of DTT, and […] of DEVD-pNA (Sigma-Aldrich). Next, the reaction mixtures were incubated at 37°C for 3 h. Finally, the pNa formation was measured at 405 nm using a microplate reader (Zenyth 3100, Anthos Labtec Instruments) ([Borralho et al., 2007]).

[3] = test system: GL261 cells; assay: cells; settings: for increase of LDH release upon co-exposure with TMZ: GL261, 200 µM TMZ + 1 µM mercury compound; for EC50: GL261, 24 h exposure, read-out: EC50 (LDH assay)
Description: Cells were seeded in 96-well plates for 24 h prior to the addition of TmHg, EtHg (1 µM), TMZ (200, 400, and 800 µM), and for the 48 h end point the co-exposure of TMZ 200 µM with 1 µM EtHg and 1 µM TmHg. After exposure for 24 and 48 h, the supernatant was transferred to a fresh plate and a lysis buffer (10×) (Thermo Scientific™ Pierce™) was added to wells containing cells and incubated at 37°C for 45 min. LDH activity was evaluated using LDH Cytotoxicity Assay Kit from Thermo Scientific™ Pierce™ in the supernatant and lysate by the addition of lactate (substrate), a tetrazolium salt, and NAD^+ (cofactor) (Reaction Mixture), according to the manufacturer’s instructions. Following 30 min of incubation in the dark at room temperature, LDH release was assessed by measuring the absorbance at 490 and 680 nm in a microplate reader (Omega BMG LABTECH). The release of LDH was quantified as the ratio between the amount in the supernatant and total LDH (supernatant + lysate) ([Branco et al., 2017]).

[4] = test system: GL261 cells; assay: cells; settings: read-out: IC50 (MTT assay)
Description: The effect of TmHg and EtHg on the viability of GL261 and N9 cells was evaluated by the MTT assay as previously described ([Branco et al., 2014]). Briefly, cells (5 × 10^3) were seeded in 96-well plates (Nunc®) and incubated at 37°C for 24 h to allow proper adherence to plates. Afterwards, TmHg and EtHg (0, 0.5, 1, 2.5, and 5 μM) were added to wells. The same procedure was carried out to evaluate the effect of TMZ on the cellular viability of GL261 and DMSO at a final concentration of 0.1% was added as a control group. For co-exposure, the addition of the mercury compounds (EtHg—1 and 2 μM; TmHg—1 and 2 µM) under study followed the addition of TMZ (200 µM).
Cell viability was determined at the time of addition of the compounds (0 h) and after 24, 48, and 72 h of exposure by adding MTT to a final concentration of 400 μg/ml per well and incubating at 37°C for 4 h. After incubation, the medium was removed, and the formazan crystals were dissolved in a 4:1 DMSO/glycine buffer (pH 10.5). After shaking for 15 min, the viability was evaluated through the measurement of formazan absorption at 550 nm on a microplate reader (Zenyth 3100, Anthos Labtec Instruments) ([Branco et al., 2014]).
The IC50 is the concentration of a compound that decreases MTT reduction by 50% relative to the non-treated control at each time point.

## C[CH2][Hg] [EtHg, ethylmercury]
[1]
  increase in Prx2 dimerization relative to non-treated control: 20–40%
[2]
  increase of caspase-3 activity: up to 50%
[3]
  increase of LDH release upon co-exposure with TMZ: greater than 50%
  EC50: 1710 ± 400 nM
[3]; GL261 versus previously reported SH-SY5Y value (Branco et al., 2017)
  EC50 (LDH) fold lower in GL261 than in SH-SY5Y cells: 3 fold
[4]; GL261, 24 h exposure
  IC50: 2700 ± 300 nM
[4]; GL261, 48 h exposure
  IC50: 2400 ± 400 nM
[4]; GL261, 72 h exposure
  IC50: 970 ± 70 nM

## C[CH2][Hg][S]c1ccccc1C(=O)[O-].[Na+] [TmHg, thimerosal]
[1]
  increase in Prx2 dimerization relative to non-treated control: 20–40%
[2]
  increase of caspase-3 activity: up to 50%
[3]
  increase of LDH release upon co-exposure with TMZ: greater than 50%
  EC50: 1310 ± 200 nM
[4]; GL261, 24 h exposure
  IC50: 2500 ± 400 nM
[4]; GL261, 48 h exposure
  IC50: 2500 ± 400 nM
[4]; GL261, 72 h exposure
  IC50: 920 ± 100 nM
